{"source": "ChEMBL document CHEMBL5321213", "about": "“Nicolaioidesin C: An Antiausterity Agent Shows Promising Antitumor Activity in a Pancreatic Cancer Xenograft Mouse Model” (J Nat Prod, 2023)", "key": {"PANC-1 [1]": {"tested_on": "PANC-1", "assay": "Antimetastatic activity in human PANC-1 cells in DMEM media assessed as inhibition of colony formation at 20 uM incubated for 24 hrs followed by replacement with fresh medium and measured after 10 days by crystal violet staining-based assay relative to control", "type": "functional"}, "MIA PaCa-2 [2]": {"tested_on": "MIA PaCa-2", "assay": "Antitumor activity against human MIA PaCa-2 cells xenografted in athymic BALB/c-nu mouse assessed as fold change in 5'-methylthioadenosine level in tumor at 2 mg/kg/day, ip administered five times per week for 4 weeks by LC-MS analysis", "type": "functional"}, "MIA PaCa-2 [3]": {"tested_on": "MIA PaCa-2", "assay": "Antitumor activity against human MIA PaCa-2 cells xenografted in athymic BALB/c-nu mouse assessed as fold change in glutamic acid level in tumor at 10 mg/kg/day, ip administered five times per week for 4 weeks by LC-MS analysis", "type": "functional"}, "MIA PaCa-2 [4]": {"tested_on": "MIA PaCa-2", "assay": "Inhibition of Akt/mTOR signaling pathway in human MIA PaCa-2 cells in nutrient-deprived medium assessed as reduction in AKT phosphorylation at S473 residue measured after 6 hrs by Western blot analysis", "type": "cell-based", "settings": "dose 5-20 µM"}, "MIA PaCa-2 [5]": {"tested_on": "MIA PaCa-2", "assay": "Antitumor activity against human MIA PaCa-2 cells xenografted in athymic BALB/c-nu mouse assessed as fold change in tetramethyl urea level in tumor at 2 mg/kg/day, ip administered five times per week for 4 weeks by LC-MS analysis", "type": "functional"}, "MIA PaCa-2 [6]": {"tested_on": "MIA PaCa-2", "assay": "Antitumor activity against human MIA PaCa-2 cells xenografted in athymic BALB/c-nu mouse assessed as fold change in Gly-Leu metabolite level in tumor at 10 mg/kg/day, ip administered five times per week for 4 weeks by LC-MS analysis", "type": "functional"}, "PANC-1 [7]": {"tested_on": "PANC-1", "assay": "Inhibition of autophagy in human PANC-1 cells in nutrient-deprived medium assessed as downregulation of LC3-II protein expression measured after 6 hrs by Western blot analysis", "type": "functional, cell-based", "settings": "dose 5-20 µM"}, "MIA PaCa-2 [8]": {"tested_on": "MIA PaCa-2", "assay": "Antitumor activity against human MIA PaCa-2 cells xenografted in athymic BALB/c-nu mouse assessed as fold change in lysine level in tumor at 2 mg/kg/day, ip administered five times per week for 4 weeks by LC-MS analysis", "type": "functional"}, "MIA PaCa-2 [9]": {"tested_on": "MIA PaCa-2", "assay": "Antitumor activity against human MIA PaCa-2 cells xenografted in athymic BALB/c-nu mouse assessed as fold change in cytosine level in tumor at 10 mg/kg/day, ip administered five times per week for 4 weeks by LC-MS analysis", "type": "functional"}, "PANC-1 [10]": {"tested_on": "PANC-1", "assay": "Preferential cytotoxicity against human PANC-1 cells in nutrient-deprived medium assessed as alteration in cell morphology by measuring cell rounding at 5 uM measured after 24 hrs by acridine orange and ethidium bromide dual fluorescent staining based imaging analysis", "type": "functional"}, "MIA PaCa-2 [11]": {"tested_on": "MIA PaCa-2", "assay": "Antitumor activity against human MIA PaCa-2 cells xenografted in athymic BALB/c-nu mouse assessed as fold change in nicotinamide level in tumor at 10 mg/kg/day, ip administered five times per week for 4 weeks by LC-MS analysis", "type": "functional"}, "MIA PaCa-2 [12]": {"tested_on": "MIA PaCa-2", "assay": "Antitumor activity against human MIA PaCa-2 cells xenografted in athymic BALB/c-nu mouse assessed as reduction in LC3-1 level in tumor at 2 to 10 mg/kg/day, ip administered five times per week for 4 weeks by immunohistochemistry analysis", "type": "functional, organism-based", "settings": "dose 2-10 mg/kg/day"}, "PANC-1 [13]": {"tested_on": "PANC-1", "assay": "Inhibition of Akt/mTOR signaling pathway in human PANC-1 cells in nutrient-deprived medium assessed as reduction in mTOR phosphorylation at S2481 residue measured after 6 hrs by Western blot analysis", "type": "cell-based", "settings": "dose 5-20 µM"}, "MIA PaCa-2 [14]": {"tested_on": "MIA PaCa-2", "assay": "Antitumor activity against human MIA PaCa-2 cells xenografted in athymic BALB/c-nu mouse assessed as fold change in cytidine 5'-monophosphate-N-acetylneuraminic acid level in tumor at 10 mg/kg/day, ip administered five times per week for 4 weeks by LC-MS analysis", "type": "functional"}, "MIA PaCa-2 [15]": {"tested_on": "MIA PaCa-2", "assay": "Antitumor activity against human MIA PaCa-2 cells xenografted in athymic BALB/c-nu mouse assessed as fold change in valine level in tumor at 10 mg/kg/day, ip administered five times per week for 4 weeks by LC-MS analysis", "type": "functional"}, "PANC-1 [16]": {"tested_on": "PANC-1", "assay": "Inhibition of Akt/mTOR signaling pathway in human PANC-1 cells in nutrient-deprived medium assessed as reduction in AKT phosphorylation at S473 residue measured after 6 hrs by Western blot analysis", "type": "cell-based", "settings": "dose 5-20 µM"}, "MIA PaCa-2 [17]": {"tested_on": "MIA PaCa-2", "assay": "Preferential cytotoxicity against human MIA PaCa-2 cells in nutrient-deprived medium measured after 24 hrs by WST-8 cell counting analysis", "type": "functional"}, "MIA PaCa-2 [18]": {"tested_on": "MIA PaCa-2", "assay": "Antitumor activity against human MIA PaCa-2 cells xenografted in athymic BALB/c-nu mouse assessed as fold change in tetramethyl urea level in tumor at 10 mg/kg/day, ip administered five times per week for 4 weeks by LC-MS analysis", "type": "functional"}, "MIA PaCa-2 [19]": {"tested_on": "MIA PaCa-2", "assay": "Antitumor activity against human MIA PaCa-2 cells xenografted in athymic BALB/c-nu mouse assessed as fold change in proline level in tumor at 2 mg/kg/day, ip administered five times per week for 4 weeks by LC-MS analysis", "type": "functional"}, "MIA PaCa-2 [20]": {"tested_on": "MIA PaCa-2", "assay": "Preferential cytotoxicity against human MIA PaCa-2 cells in nutrient-deprived medium assessed as alteration in cell morphology by measuring leakage of cell components at 5 uM measured after 24 hrs by acridine orange and ethidium bromide dual fluorescent staining based imaging analysis", "type": "functional"}, "MIA PaCa-2 [21]": {"tested_on": "MIA PaCa-2", "assay": "Preferential cytotoxicity against human MIA PaCa-2 cells in nutrient-deprived medium assessed as alteration in cell morphology by measuring cell blebbing at 5 uM measured after 24 hrs by acridine orange and ethidium bromide dual fluorescent staining based imaging analysis", "type": "functional"}, "MIA PaCa-2 [22]": {"tested_on": "MIA PaCa-2", "assay": "Antitumor activity against human MIA PaCa-2 cells xenografted in athymic BALB/c-nu mouse assessed as fold change in 1-aminocyclopropanecarboxylicacid level in tumor at 10 mg/kg/day, ip administered five times per week for 4 weeks by LC-MS analysis", "type": "functional"}, "MIA PaCa-2 [23]": {"tested_on": "MIA PaCa-2", "assay": "Antitumor activity against human MIA PaCa-2 cells xenografted in athymic BALB/c-nu mouse assessed as fold change in D-glucuronic acid level in tumor at 2 mg/kg/day, ip administered five times per week for 4 weeks by LC-MS analysis", "type": "functional"}, "MIA PaCa-2 [24]": {"tested_on": "MIA PaCa-2", "assay": "Antitumor activity against human MIA PaCa-2 cells xenografted in athymic BALB/c-nu mouse assessed as tumor wet weight at 10 mg/kg/day, ip administered five times per week for 4 weeks (reference value: 368 mg)", "type": "functional"}, "MIA PaCa-2 [25]": {"tested_on": "MIA PaCa-2", "assay": "Inhibition of autophagy in human MIA PaCa-2 cells in nutrient-deprived medium assessed as downregulation of LC3-I protein expression measured after 6 hrs by Western blot analysis", "type": "functional, cell-based", "settings": "dose 5-20 µM"}, "MIA PaCa-2 [26]": {"tested_on": "MIA PaCa-2", "assay": "Antitumor activity against human MIA PaCa-2 cells xenografted in athymic BALB/c-nu mouse assessed as reduction in LC3-II level in tumor at 2 to 10 mg/kg/day, ip administered five times per week for 4 weeks by immunohistochemistry analysis", "type": "functional, organism-based", "settings": "dose 2-10 mg/kg/day"}, "MIA PaCa-2 [27]": {"tested_on": "MIA PaCa-2", "assay": "Antitumor activity against human MIA PaCa-2 cells xenografted in athymic BALB/c-nu mouse assessed as fold change in methionine level in tumor at 2 mg/kg/day, ip administered five times per week for 4 weeks by LC-MS analysis", "type": "functional"}, "MIA PaCa-2 [28]": {"tested_on": "MIA PaCa-2", "assay": "Antitumor activity against human MIA PaCa-2 cells xenografted in athymic BALB/c-nu mouse assessed as fold change in uracil level in tumor at 2 mg/kg/day, ip administered five times per week for 4 weeks by LC-MS analysis", "type": "functional"}, "MIA PaCa-2 [29]": {"tested_on": "MIA PaCa-2", "assay": "Antitumor activity against human MIA PaCa-2 cells xenografted in athymic BALB/c-nu mouse assessed as fold change in D-glucosamine 6-phosphate level in tumor at 2 mg/kg/day, ip administered five times per week for 4 weeks by LC-MS analysis", "type": "functional"}}, "note": "Active and inactive are the calls of the source. The rule behind the calls is not given here."}
{"smiles": "COc1cc(O)c(C(=O)[C@@H]2CC=C(CCC=C(C)C)C[C@H]2c2ccccc2)c(O)c1", "values": [{"measurement": "inhibition at 20 µM", "setting": "PANC-1 [1]", "value": 82, "unit": "%"}, {"measurement": "fold change (FC)", "setting": "MIA PaCa-2 [2]", "value": 0.33}, {"measurement": "fold change (FC)", "setting": "MIA PaCa-2 [3]", "value": 0.25}, {"measurement": "inhibition", "setting": "MIA PaCa-2 [4]", "value": "Dose-Dependent Effect"}, {"measurement": "fold change (FC)", "setting": "MIA PaCa-2 [5]", "value": 0.76}, {"measurement": "fold change (FC)", "setting": "MIA PaCa-2 [6]", "value": 0.4}, {"measurement": "inhibition", "setting": "PANC-1 [7]", "value": "Dose-Dependent Effect"}, {"measurement": "fold change (FC)", "setting": "MIA PaCa-2 [8]", "value": 0.32}, {"measurement": "fold change (FC)", "setting": "MIA PaCa-2 [9]", "value": 0.44}, {"measurement": "Activity", "setting": "PANC-1 [10]", "value": "Active"}, {"measurement": "fold change (FC)", "setting": "MIA PaCa-2 [11]", "value": 0.39}, {"measurement": "Activity", "setting": "MIA PaCa-2 [12]", "value": "Active"}, {"measurement": "inhibition", "setting": "PANC-1 [13]", "value": "Dose-Dependent Effect"}, {"measurement": "fold change (FC)", "setting": "MIA PaCa-2 [14]", "value": 0.31}, {"measurement": "fold change (FC)", "setting": "MIA PaCa-2 [15]", "value": 0.47}, {"measurement": "inhibition", "setting": "PANC-1 [16]", "value": "Dose-Dependent Effect"}, {"measurement": "PC50", "setting": "MIA PaCa-2 [17]", "value": 2.9, "unit": "µM"}, {"measurement": "fold change (FC)", "setting": "MIA PaCa-2 [18]", "value": 0.51}, {"measurement": "fold change (FC)", "setting": "MIA PaCa-2 [19]", "value": 0.62}, {"measurement": "Activity", "setting": "MIA PaCa-2 [20]", "value": "Active"}, {"measurement": "Activity", "setting": "MIA PaCa-2 [21]", "value": "Active"}, {"measurement": "fold change (FC)", "setting": "MIA PaCa-2 [22]", "value": 0.61}, {"measurement": "fold change (FC)", "setting": "MIA PaCa-2 [23]", "value": 1.03}, {"measurement": "Activity", "setting": "MIA PaCa-2 [24]", "value": 119, "unit": "mg"}, {"measurement": "inhibition", "setting": "MIA PaCa-2 [25]", "value": "Dose-Dependent Effect"}, {"measurement": "Activity", "setting": "MIA PaCa-2 [26]", "value": "Active"}, {"measurement": "fold change (FC)", "setting": "MIA PaCa-2 [27]", "value": 0.44}, {"measurement": "fold change (FC)", "setting": "MIA PaCa-2 [28]", "value": 0.29}, {"measurement": "fold change (FC)", "setting": "MIA PaCa-2 [29]", "value": 0.4}]}
